In patent US10344330B2, “Glatiramer acetate response biomarker mRNA potency assay” (Mylan Inc., priority 2013, dated 2019):

Key:
[1] = system: mouse IL-4 mRNA in primary LN cells; test: Mouse IL-4 mRNA in LN cells of immunized SJL/J mice stimulated with Copaxone and GMA lots, normalized to Actβ or GAPDH (Example V); type: cell-based
Procedure: A real-time polymerase chain reaction method was used to measure the expression of cytokine mRNA in GA-stimulated LN cells from GA-immunized SJL/J mice. Normalization of expression with two different housekeeping genes, GAPDH and β-actin, was tested.
Each group consisted of six female SJL/J mice immunized by injection in all four footpads with a total dose of 250 μg of one lot of GA, or mannitol and no GA. Three Copaxone batches and three GMA batches were used to immunize the mice. CFA was included in both GA and mannitol immunizations. Ten days following immunization, LN cell samples isolated from the immunized mice were each stimulated with a concentration of a Copaxone lot and a GMA lot. A positive control of 2.5 μg/mL ConA treated LN cells and a negative control of 10 μg/mL MBP treated cells were included in each group.
Therefore, the Q-PCR analysis was repeated on the samples, measuring levels of IL-2, IL-4, IL-5, and IL-13, using both GAPDH and β-actin as reference gene.

[2] = system: mouse IL-4 mRNA in primary LN cells; test: Validation: mouse IL-4 mRNA by real-time PCR in LN cells of GA-immunized SJL/J mice (Example IV); type: cell-based; conditions: for IL-4 mRNA Fold Change: normalized to GAPDH; for induction of IL-4 mRNA: 20 μg/mL GA, 6 hours
Procedure: Three experiments were conducted using one batch of GA (Mylan GMA). The primary LN cells were stimulated by incubation with 6 concentrations (0.3 to 20 μg/mL) of the GA for 6 hours at 37° C. Total RNA was isolated from LN cells stimulated with GA or controls. cDNA was synthesized from the RNA and the mRNA levels of seven mouse cytokines, IL-2, IL-4, IL-5, IL-10, IL-13, interferon (IFN)-γ and tumor necrosis factor (TNF)-α, were quantitatively measured by a real-time PCR method.
Female SJL/J mice at 8-9 weeks of age were immunized by injection into four footpads using a 1 mL syringe with a 27-G, ½-inch needle. Each mouse received a total injection volume of 0.1 mL of GMA emulsified in CFA (about 10 μL into each of the front footpads and 40 μL into each of the hind footpads). Animals were immunized on Day 0. After injection, animals were placed back in their cages and housed ≤6 animals per cage.
Immunized animals were sacrificed by cervical dislocation on Day 10 following immunization. […] After centrifugation at about 200×g for 10 minutes at 4° C., the cell pellet was re-suspended in 40 mL of DCCM-1 medium for cell counting. A Trypan blue exclusion method was used to determine the cell density of viable cells in the suspension. After cell counting, the LN cells were suspended in enriched DCCM-1 medium at density of 7.5×10^6 cells/mL. LN cells (0.12 mL) were plated into each well of 96-well tissue culture plates.
Dilutions of GA (Mylan GMA) were prepared using enriched DCCM-1 medium as the diluent. GA dilutions (0.12 mL) were added in the assigned wells of 96-well tissue culture plates. The same volume of LN cells (0.12 mL) isolated from immunized animals was added to the assigned wells. A positive control and a negative control were always performed in the same assay by treating LN cells with 2.5 μg/mL ConA and 10 μg/mL MBP, respectively. The LN cells with mock stimulation protocols (enriched DCCM-1 medium) were used to monitor the background mRNA level of a cytokine. The plates were incubated at 37° C. in a humidified 5% CO2 incubator for 6 hr.
At the end of incubation time, culture medium from stimulated cells was removed by aspiration and the cells were lysed using Qiagen or Promega lysis buffer. The lysate was transferred to an RNeasy Mini column (Qiagen) or wells of the SV 96 Binding Plate (Promega) for RNA isolation and cDNA synthesis. All tested samples were run in triplicate.
The SV 96 Total RNA Isolation System (Promega; Cat. No. Z3505) was used for total RNA isolation. Assay procedures were carried out according to each manufacturer's protocol. RNA samples were stored at −70° C. until use. […] The assay procedure was carried out according to the manufacturer's protocol.
The plate was centrifuged at 2000 rpm for 2 minutes at 4° C. to spin down the contents and eliminate air bubbles. Samples were prepared and run in a 96-well plate using a Life Technologies Real-Time PCR system (previously Applied Biosystems; Model No. 7500) according to the manufacturer's recommendation. The mix for the reference gene was prepared in the same way using the reference gene primer.
A relative quantitation method was used to analyze changes in mIL-2, mIL-4, mIL-5, mIL-10, mIL-13, mIFN-γ and TNF-α expression in GA treated samples relative to the untreated control (Enriched DCCM-1 treated) samples using the following program:
Levels of mouse cytokine amplicons were normalized to an internal probe level (GAPDH) from the same samples. The following equations were used to calculate the relative increase in response to GA stimulation compared to the control sample (Enriched DCCM1 sample): […]

What does the source list for “Concanavalin A [ConA, reference compound]”?
IL-4 mRNA Fold Change ([1]; Group 3 (mice immunized with GA-M2 Mylan GMA), 2.5 μg/mL, normalized to Actβ): 43.6 fold; IL-4 mRNA Fold Change ([1]; Group 3 (mice immunized with GA-M2 Mylan GMA), 2.5 μg/mL, normalized to GAPDH): 87.9 fold; IL-4 mRNA Fold Change ([1]; Group 4 (mice immunized with GA-C2 Copaxone), 2.5 μg/mL, normalized to Actβ): 48.3 fold; IL-4 mRNA Fold Change ([1]; Group 4 (mice immunized with GA-C2 Copaxone), 2.5 μg/mL, normalized to GAPDH): 84.8 fold; IL-4 mRNA Fold Change ([2]; Experiment 1, 2.5 μg/mL): 148.6 fold; IL-4 mRNA Fold Change ([2]; Experiment 2, 2.5 μg/mL): 21.0 fold; IL-4 mRNA Fold Change ([2]; Experiment 3, 2.5 μg/mL): 53.8 fold

What does the source list for “L-glutamic acid polymer with L-alanine, L-lysine and L-tyrosine, acetate (salt) [GA]”?
IL-4 cross-potency ([1]; Copaxone: C/A, GMA: B/D, 5 μg/mL): 103%; induction of IL-4 mRNA ([2]; SJL/J, Exp 1): 41.3 fold; induction of IL-4 mRNA ([2]; SJL/J, Exp 2): 11.8 fold; induction of IL-4 mRNA ([2]; SJL/J, Exp 3): 27.6 fold; induction of IL-4 mRNA (in words) ([2]; SJL/J, different concentrations of GA vs unstimulated LN cells): robust induction

B1: MBP: myelin basic protein, a negative control (protein, UniProt P02686 1-304, looked up)
Myelin basic protein: MGNHAGKRELNAEKASTNSETNRGESEKKRNLGELSRTTSEDNEVFGEADANQNNGTSSQDTAVTDSKRTADPKNAWQDAHPADPGSRPHLIRLFSRDAPGREDNTFKDRPSESDELQTIQEDSAATSESLDVMASQKRPSQRHGSKYLATASTMDHARHGFLPRHRDTGILDSIGRFFGGDRGAPKRGSGKDSHHPARTAHYGSLPQKSHGRTQDENPVVHFFKNIVTPRTPPPSQGKGRGLSLSRFSWGAEGQRPGFGYGGRASDYKSAHKGFKGVDAQGTLSKIFKLGGRDSRSGSPMARR
Which “IL-4 mRNA Fold Change” value ([1]; Group 3 (mice immunized with GA-M2 Mylan GMA), 10 μg/mL, normalized to Actβ) does the source give for B1 here?
The value was 0.8 fold.

And the “IL-4 mRNA Fold Change” value ([1]; Group 3 (mice immunized with GA-M2 Mylan GMA), 10 μg/mL, normalized to GAPDH)?
The value was 0.7 fold.

What about the “IL-4 mRNA Fold Change” value ([1]; Group 4 (mice immunized with GA-C2 Copaxone), 10 μg/mL, normalized to Actβ) of the same molecule?
Its value is 2.4 fold.

And the “IL-4 mRNA Fold Change” value ([1]; Group 4 (mice immunized with GA-C2 Copaxone), 10 μg/mL, normalized to GAPDH)?
The value was 1.3 fold.

And the “IL-4 mRNA Fold Change” value ([2]; Experiment 1, 10 μg/mL)?
The value was 2.7 fold.

And the “IL-4 mRNA Fold Change” value ([2]; Experiment 2, 10 μg/mL)?
Its value is 0.8 fold.

And the “IL-4 mRNA Fold Change” value ([2]; Experiment 3, 10 μg/mL)?
The value was 1.1 fold.
